Results taken from paper PMC5766975, “Production of eicosapentaenoic acid by application of a delta-6 desaturase with the highest ALA catalytic activity in algae” (Microbial Cell Factories, 2018).
Like-named read-outs stand apart in the source and are kept apart here.

Columns and labels:
TpFADS6 [1] = target: T1, TpFADS6 (Thalassiosira pseudonana, UniProt Q4G2T1); design: gene desI; details: single substrate fed to Saccharomyces cerevisiae INVSc1 expressing the desaturase; delta-6 desaturation; free acid fed
TpFADS6 [2] = target: T1, TpFADS6; assay: fatty acid composition of substrate-fed yeast transformants by GC (conversion to GLA); format: cell-based; design: gene desI; full-length, synthetic codon-optimised gene, 1455-bp fragment; expressed from pYES2/NT C (vector-encoded tag) in Saccharomyces cerevisiae INVSc1; details: single substrate fed to Saccharomyces cerevisiae INVSc1 expressing the desaturase; delta-6 desaturation; free acid fed

T1 sequence (Q4G2T1 entry or part of it): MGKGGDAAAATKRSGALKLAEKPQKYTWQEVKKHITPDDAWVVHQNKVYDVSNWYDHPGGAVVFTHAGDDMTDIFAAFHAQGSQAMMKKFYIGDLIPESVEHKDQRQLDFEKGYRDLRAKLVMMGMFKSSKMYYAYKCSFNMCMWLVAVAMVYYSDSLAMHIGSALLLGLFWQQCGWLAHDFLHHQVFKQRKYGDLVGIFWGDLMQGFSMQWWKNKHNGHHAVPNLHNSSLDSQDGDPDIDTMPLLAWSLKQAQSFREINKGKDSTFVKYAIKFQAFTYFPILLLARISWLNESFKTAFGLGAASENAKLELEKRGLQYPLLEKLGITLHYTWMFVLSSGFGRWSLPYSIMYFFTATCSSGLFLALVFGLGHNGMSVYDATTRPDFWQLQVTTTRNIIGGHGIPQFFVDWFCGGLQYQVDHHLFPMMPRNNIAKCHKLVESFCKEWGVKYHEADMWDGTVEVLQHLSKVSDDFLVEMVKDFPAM

SMILES | fatty acid composition of substrate-fed yeast transformants by GC (conversion to) (TpFADS6 [1]) | fatty acid composition of substrate-fed yeast transformants by GC (conversion to) (TpFADS6 [2])
CC/C=C\C/C=C\C/C=C\CCCCCCCC(=O)O [ALA, α-linolenic acid] | both substrates were catalyzed by TpFADS6 | 
CCCCC/C=C\C/C=C\CCCCCCCC(=O)O [LA, linoleic acid] |  | both substrates were catalyzed by TpFADS6
